Laboratory results reported in paper PMC10967270, “Intrapulmonary and Systemic Pharmacokinetics of Colistin Following Nebulization of Low-Dose Colistimethate Sodium in Patients with Ventilator-Associated Pneumonia Caused by Carbapenem-Resistant Acinetobacter baumannii” (Antibiotics, 2024).

Tested on: ventilator-associated pneumonia caused by carbapenem-resistant Acinetobacter baumannii
Assay: Clinical and microbiological outcomes of CMS nebulization
Assay type: in vivo
Details: of 20 patients
Experimental: Patients were treated with CMS (Xellia Pharmaceuticals ApS, Copenhagen, Denmark) at a total of 3.75 MIU (equivalent to 300 mg of CMS or 112.5 mg of CBA) administered four times a day at 6 h intervals. CMS was dissolved in 5 mL of normal saline and administered over 30 min through a jet nebulizer (Sileo 54, Macjin Medical, Seoul, Republic of Korea) connected to the ventilator circuit. Bronchoalveolar lavage fluid (BALF) was obtained by instilling 20 mL of normal saline into the right middle lobe or left lingular segmental bronchus using a bronchoscope, followed by immediate aspiration and collection into a syringe. Samples were collected immediately before the nebulization treatment and at 1, 3, and 5 h after the start of the treatment. Blood samples were collected before the nebulization treatment and at 1, 2, 3, and 5 h thereafter. Both BALF and blood samples were centrifuged at 3000× g for 10 min within 1 h of collection and the supernatant was isolated. Samples were then stored in a refrigerator at a temperature below −70 °C.
Clinical outcomes were classified as cured (resolution of symptoms/signs of pneumonia plus improvement or lack of progression in radiologic pulmonary infiltrates, and antibiotics-free), improved (significant improvement of symptoms/signs of pneumonia plus improvement or lack of progression in radiologic abnormalities, but remaining on antibiotic treatment), and failed (persistent or worsening of symptoms/signs of pneumonia, persistent or progression of radiologic pulmonary infiltrates that required additional antibiotic therapy, or death).

For Colistimethate sodium [CMS], the “Clinical outcomes: failed, number of patients” value (nebulized CMS 3.75 MIU/day) was 4, the “Microbiologic outcomes: eradication, number of patients” value (nebulized CMS 3.75 MIU/day) was 8 and the “Microbiologic outcomes: indeterminate, number of patients” value (nebulized CMS 3.75 MIU/day) was 2. The “Microbiologic outcomes: persistence, number of patients” value (nebulized CMS 3.75 MIU/day) was 10, the “Survival: no, number of patients” value (nebulized CMS 3.75 MIU/day) was 15 and the “Survival: yes, number of patients” value (nebulized CMS 3.75 MIU/day) was 5. For the same substance, the “Clinical outcomes: cured, number of patients” value (nebulized CMS 3.75 MIU/day in four doses at 6 h intervals) was 16.
